Data: article PMC12365113 (IBRO Neuroscience Reports, 2025)
Marks after values point to notes of the source that are not given here.

How the values were obtained:
Aβ42 = Aβ42 (Homo sapiens, UniProt P05067); test: ThT assay of inhibition of Aβ aggregation; assay type: biochemical
BSA protein glycation = BSA protein glycation (Bos taurus, UniProt P02769); test: Anti-glycation assay; assay type: biochemical, Bovine; settings: BSA + dextrose, 9 days at 37 °C, mean ± SD of triplicate
Chain of BSA protein glycation (P02769 25-607): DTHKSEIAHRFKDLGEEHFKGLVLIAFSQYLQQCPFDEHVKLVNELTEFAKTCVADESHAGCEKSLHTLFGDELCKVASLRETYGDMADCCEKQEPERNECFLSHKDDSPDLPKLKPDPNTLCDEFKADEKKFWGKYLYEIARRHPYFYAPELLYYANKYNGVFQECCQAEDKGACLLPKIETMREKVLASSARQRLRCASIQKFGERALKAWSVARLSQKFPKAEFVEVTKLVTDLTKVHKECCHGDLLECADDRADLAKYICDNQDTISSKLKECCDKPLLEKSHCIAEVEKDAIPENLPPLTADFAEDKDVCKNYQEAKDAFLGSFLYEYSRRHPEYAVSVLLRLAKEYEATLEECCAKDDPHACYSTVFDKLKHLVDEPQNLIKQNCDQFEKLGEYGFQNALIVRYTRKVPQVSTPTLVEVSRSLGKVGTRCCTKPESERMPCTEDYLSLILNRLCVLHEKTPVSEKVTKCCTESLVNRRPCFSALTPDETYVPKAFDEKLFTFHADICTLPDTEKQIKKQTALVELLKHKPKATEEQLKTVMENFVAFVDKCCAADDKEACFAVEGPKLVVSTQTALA

Chain of Aβ42 (P05067 672-713): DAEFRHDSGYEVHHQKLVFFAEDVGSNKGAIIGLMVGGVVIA

`O=S1(=O)OC(c2ccc(O)cc2)(c2ccc(O)cc2)c2ccccc21` [Phenol Red] showed an IC50 (Aβ42) of 94.7 µM.
In the case of `N=C(N)NN` [Aminoguanidine], the “Half-maximal inhibitory (IC50) values Protein glycation” value (BSA protein glycation) is reported as 15.27 ± 0.37^b μg/mL.
